Data on one compound can be found in paper PMC7179450, “Primary Human Hepatocytes, But not HepG2 or Balb/c 3T3 Cells, Efficiently Metabolize Salinomycin and Are Resistant to Its Cytotoxicity” (Molecules, 2020).

Where “and” joins values, the source holds several entries; their conditions need not be identical. Equal values may be shown once. Read-outs that look alike come from different tables or passages of the source. Some results are limits rather than exact numbers.

The test system of data set [1] is primary human hepatocytes (PHH). Description: MTT assay, cytotoxicity in primary human hepatocytes. It is filed as cell-based. The note with it: Hepatocyte, mean ± SEM, n = 3, read-out: EC50 (effective concentration). The protocol: Cryopreserved PHH were purchased from the Primacyt GmbH (Schwerin, Germany). Two different lots were chosen based on CYP activity. The donor was a person. The post-thaw viability was 94.6% for lot HH160531 (used in two repetitions) and 85.0% for lot HH130805. The initial cell viability was determined with the trypan blue exclusion test. The cells were thawed and purified using the Plating and Thawing Kit (Primacyt GmbH). Purified hepatocytes were resuspended in Hepatocyte Plating Medium (Primacyt GmbH) and seeded on collagen-coated 96-well plates at a density of 9 × 10^5 cell/mL and incubated at 37 °C with 5% CO2. After 6 h of incubation, the medium was removed and the cells were washed with PBS. Then Human Hepatocyte Maintenance Medium (HHMM) (Primacyt GmbH) with the studied drugs was added to hepatocytes (100 µL/well). […]
(§1) The concentration ranges of the drugs were chosen according to their solubility and their plasma level. […] The cytotoxicity was assessed after 24 and 48 h of exposure of cell lines or after 12 and 24 h exposure of PHH. […]
(§2) The metabolic activity of living cells was assessed by measuring the activity of dehydrogenases. […] The plate was shaken for 15 min at room temperature and transferred to a microplate reader to measure the absorbance at 570 nm, using a blank as a reference. Cytotoxicity was expressed as a percentage of the negative control (0.1% or 0.2% DMSO).
Background: Formazan colour is commonly taken as a measure of viable cells.

The next data set has as its system HepG2 cells. Description: NRU assay in HepG2. Format: cell-based, human. The note with it: for EC50: Homo sapiens, read-out: EC50 (effective concentration). The protocol: (§3) The HepG2 cell line was purchased from the American Type Culture Collection (ATCC® HB-8065™). The cells were cultured in Minimum Essential Medium Eagle (MEME) (Sigma–Aldrich Co. (St. Louis, MO, USA)). Normal murine embryonic fibroblasts, Balb/c 3T3 clone A31 cell line (gift from Department of Swine Diseases of the National Veterinary Research Institute in Pulawy) was cultured in Dulbecco’s Modified Eagle’s Medium (DMEM) (Invitrogen Corporations (Paisley, UK)). The media were supplemented with 10% BCS (Balb/c 3T3), 10% FBS (HepG2), 1% L-glutamine, and 1% antibiotic solution. The cells were maintained in 75 cm^2 cell culture flasks in humidified incubator at 37 °C, in an atmosphere of 5% CO2. The medium was refreshed every two or three days and the cells were trypsinized by 0.25% trypsin–0.02% EDTA after reaching 70–80% confluence. The initial cell viability was determined with the trypan blue exclusion test. Single cell suspensions were prepared and adjusted to a density of 2 × 10^5 cell/mL (HepG2) and 1 × 10^5 cell/mL (Balb/c 3T3). The cell suspension was transferred to 96-well plates (100 µL/well) and incubated for 24 h before exposure to the studied drugs.
(§4) The concentration ranges of the drugs were chosen according to their solubility and their plasma level. Each drug was dissolved in DMSO. The final concentration of DMSO was 0.1% or 0.2% in the medium for both samples and corresponding controls. […] All drug solutions in medium were freshly prepared and protected from light. SAL was tested in seven concentrations from 0.39 to 25 µg/mL. […] The cytotoxicity was assessed after 24 and 48 h of exposure of cell lines or after 12 and 24 h exposure of PHH. […]
The assay, based on staining of living cells by neutral red (NR), was performed according to the protocol described by Borenfreund and Puerner. […] After 10 min of shaking, the absorbance of the dissolved NR was measured at 540 nm using a blank as a reference. Cytotoxicity was expressed as a percentage of the negative control (0.1% or 0.2% DMSO).

In the next data set the test system is Balb/c 3T3 cells. Description: LDH leakage assay in Balb/c 3T3. It is filed as cell-based. The note with it: Mus musculus, BALB/c3T3, Balb/c 3T3, LDH, mean ± SEM, n = 3, read-out: EC50 (effective concentration). As for the experimental part: as §3, with “The medium was refreshed every two or three days and the cells were trypsinized by 0.25% trypsin–0.02% EDTA after reaching 70–80% confluence.” left out, “Single cell suspensions were prepared and adjusted to a density of 2 × 10^5 cell/mL (HepG2) and 1 × 10^5 cell/mL (Balb/c 3T3). The cell suspension was transferred to 96-well plates (100 µL/well) and incubated for 24 h before exposure to the studied drugs.” left out
as §1
The integrity of the plasma membrane was assessed through the test of lactate dehydrogenase (LDH) release, which was monitored using a commercially available Cytotoxicity Detection Kit (LDH) (Roche Diagnostics, Basel, Switzerland). […] The absorbance was measured at 492 nm in a microplate reader using a blank as a reference.
(LDH leaks from cells whose membrane has failed.)

A further data set concerns PHH. Briefly: Cytotoxicity battery (MTT, NRU, TPC, LDH) in PHH. Format: cell-based, human. The note with it: well tolerated at lower concentrations. The protocol: as §4, with “µg/mL. Tiamulin was added in two concentrations (1 and 10 µg/mL) or just one concentration (1 µg/mL) to cell lines or human hepatocytes, respectively. Prednisolone was tested in one concentration—1 µg/mL independent of the type of cells.” for “µg/mL.”
as §2
(§5) The assay, based on staining of living cells by neutral red (NR), was performed according to the protocol described by Borenfreund and Puerner. […] After 10 min of shaking, the absorbance of the dissolved NR was measured at 540 nm using a blank as a reference. […]

Data set [2] in a line: Cytotoxicity battery in human hepatoma cells. Format: cell-based. The note with it: HepG2 human hepatoma cells, after 24 h, read-out: cytotoxic concentrations. As for the experimental part: as §4, with “µg/mL. Tiamulin was added in two concentrations (1 and 10 µg/mL) or just one concentration (1 µg/mL) to cell lines or human hepatocytes, respectively. Prednisolone was tested in one concentration—1 µg/mL independent of the type of cells.” for “µg/mL.”
as §2, §5

Another data set deals with dogs. Conditions: chronic toxicity study in dogs; cited from earlier work.
The subject of another data set is rabbits. The note with it: cited from earlier work.
The conditions of data set [3]: rat, in vivo; cited from earlier work.
In another data set the test system is humans. The note with it: accidental poisoning: nausea, photophobia, limb weakness, tachycardia, muscle pain, mild rhabdomyolysis with myoglobinuria; cited from earlier work.

For `CC[C@@H](C(=O)[C@@H](C)[C@@H](O)[C@H](C)[C@@H]1O[C@@H]([C@@H](CC)C(=O)O)CC[C@@H]1C)[C@H]1O[C@]2(C=C[C@@H](O)[C@]3(CC[C@@](C)([C@H]4CC[C@](O)(CC)[C@H](C)O4)O3)O2)[C@H](C)C[C@@H]1C` [SAL, salinomycin], the EC50 was over 25 µg/mL in [1] (12 h exposure); over 25 µg/mL in data set [1] (24 h exposure); 0.6 ± 0.2 µg/mL in the data set with HepG2 cells (HepG2, 24 h); under 0.39 µg/mL in the data set on HepG2 cells (HepG2, 48 h); over 25 µg/mL in the data set with Balb/c 3T3 cells (24 h exposure); 23.1 ± 0.8 µg/mL in the data set on Balb/c 3T3 cells (48 h exposure). In addition, the “lowest concentration with significant effect on lysosomal activity” value in the data set with HepG2 cells (HepG2, 24 h, SAL alone or in both drug combinations (Figure S2)) is 0.39 µg/mL. In addition, in the data set on PHH, the “concentrations exerting toxic effects” value is reported as over 10 µg/mL. Also, the EC50 at 24 h in [2] is 800 nM to 20.5 µM and 0.6 µg/mL to 15.4 µg/mL. For the same compound, the “NOAEL (No Observed Adverse Effect Level)” value with dogs is reported as 500 µg/kg b.w. Also, the LD50 in the data set on rabbits was 21 mg/kg b.w. Also, in data set [3], the “unchanged SAL in excreta, share of administered dose” value is 2%. Further, the “toxicity in a human” value in the data set on humans was “severe toxicity”.
